{"source": "patent US9440930B2", "about": "“Substituted bicyclic dihydropyrimidinones and their use as inhibitors of neutrophil elastase activity” (Boehringer Ingelheim International GmbH, priority 2014, dated 2016)", "key": {"[1]": {"target": "T1, neutrophil elastase in human plasma (Homo sapiens, UniProt P08246)", "T1 construct": "The stimulated blood is centrifuged to generate the neutrophil elastase enriched plasma; from tissue; host or cells: plasma from zymosan-stimulated citrated whole blood of healthy human donors", "T1 sequence (P08246 30-267)": "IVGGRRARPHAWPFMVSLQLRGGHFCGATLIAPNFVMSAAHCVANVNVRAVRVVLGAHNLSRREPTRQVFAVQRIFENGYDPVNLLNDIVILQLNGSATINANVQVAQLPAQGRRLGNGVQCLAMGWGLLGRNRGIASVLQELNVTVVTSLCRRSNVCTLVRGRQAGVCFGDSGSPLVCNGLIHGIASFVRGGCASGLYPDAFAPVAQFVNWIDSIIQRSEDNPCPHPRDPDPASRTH", "experiment": "Neutrophil elastase inhibitory activity in human plasma", "assay_type": "biochemical", "conditions": "zymosan-stimulated human plasma, substrate MeOSuc-Ala-Ala-Pro-Val-AMC 250 μM", "method": "Assay for the Determination of Neutrophil Elastase Inhibitory Activity in Human Plasma\nCitrated blood from human healthy donors is mixed with zymosan suspension and incubated at room temperature. This leads to the stimulation of neutrophils and the release of neutrophil elastase into the plasma. The stimulated blood is centrifuged to generate the neutrophil elastase enriched plasma.\n• A single 45 ml blood sample is taken into a 50 ml tube containing citrate (3.13%, 5 mL) and the tube is gently inverted 4 times. • Immediately after blood sampling, zymosan working solution (5 mL) is added. • After the addition of zymosan working solution, the tubes are capped, mixed gently and incubated at 22° C. for 15 min on a shaker at 20 rpm. • Make 10 ml aliquots after the incubation time. • Centrifuge the 15 ml tubes at 800 g for 15 min at 4° C. in a Jouan centrifuge. • Harvest the plasma and make 1-5 ml aliquots. • Store the plasma at −80° C.\nA dose response curve is generated to calculate the EC50 of the inhibitor. The analysis of the data is performed by the calculation of the percentage of fluorescence in the presence of the test compound compared to the fluorescence of the vehicle control after subtracting the background fluorescence: An inhibitor of the neutrophil elastase enzyme will give values between 100% control (no inhibition) and 0% control (complete inhibition)."}, "human hepatocytes": {"test_system": "human hepatocytes", "experiment": "Metabolic stability with human hepatocytes", "assay_type": "in vitro ADME", "conditions": "human hepatocyte suspension, 1 μM compound, well stirred model", "method": "Assay for the Determination of Metabolic Stability with Human Hepatocytes\nThe metabolic degradation of the test compound is assayed in a human hepatocyte suspension. Human hepatocytes (typically cryopreserved) are incubated in an appropriate buffer system (e.g. Dulbecco's modified eagle medium plus 3.5 μg glucagon/500 mL, 2.5 mg insulin/500 mL and 3.75 mg/500 mL hydrocortison) containing 5% species serum. Following a (typically) 30 min preincubation in an incubator (37° C., 10% CO2), 5 μl of test compound solution (80 μM; from 2 min stock solution in DMSO diluted 1:25 with medium) are added into 395 μl hepatocyte suspension (cell density in the range 0.25-5*10^6 cells/mL, typically 1*10^6 cells/mL; final concentration of test compound 1 μM, final DMSO concentration 0.05%). The cells are incubated for six hours (incubator, orbital shaker) and samples (25 μl) are taken at 0, 0.5, 1, 2, 4 and 6 hours. Samples are transferred into acetonitrile and pelleted by centrifugation (5 min). The supernatant is transferred to a new 96-deepwell plate, evaporated under nitrogen and resuspended. The decline of parent compound is analyzed by LC-MS/MS. […]"}, "Aqueous solubility": {"experiment": "Aqueous solubility", "assay_type": "physicochemical", "conditions": "McIlvaine buffer pH 6.8 containing 2.5% DMSO, kinetic from dmso stock, McIlvaine buffer pH 6.8, 2.5% DMSO, 24 h shaking", "method": "Assay for Determination of Aqueous Solubility\nStarting from a 10 min DMSO stock solution, aliquots are diluted with acetonitrile/water (1/1) and McIlvaine buffer pH 6.8, respectively. After 24 h of shaking, the solutions or suspensions are filtered and analyzed by LC-UV. The amount dissolved in buffer is compared to the amount dissolved in the acetonitrile/water (1/1) solution. Solubility is measured from 0.001 to 0.125 mg/ml at a DMSO concentration of 2.5%. If more than 90% of the compound is dissolved in buffer, the value is marked with “>”."}, "cytochrome P450 2C9": {"target": "T2, cytochrome P450 2C9 (Homo sapiens, UniProt P11712)", "T2 construct": "is assayed at 37° C. with human liver microsomes; from tissue; host or cells: human liver microsomes", "T2 sequence (P11712 whole entry)": "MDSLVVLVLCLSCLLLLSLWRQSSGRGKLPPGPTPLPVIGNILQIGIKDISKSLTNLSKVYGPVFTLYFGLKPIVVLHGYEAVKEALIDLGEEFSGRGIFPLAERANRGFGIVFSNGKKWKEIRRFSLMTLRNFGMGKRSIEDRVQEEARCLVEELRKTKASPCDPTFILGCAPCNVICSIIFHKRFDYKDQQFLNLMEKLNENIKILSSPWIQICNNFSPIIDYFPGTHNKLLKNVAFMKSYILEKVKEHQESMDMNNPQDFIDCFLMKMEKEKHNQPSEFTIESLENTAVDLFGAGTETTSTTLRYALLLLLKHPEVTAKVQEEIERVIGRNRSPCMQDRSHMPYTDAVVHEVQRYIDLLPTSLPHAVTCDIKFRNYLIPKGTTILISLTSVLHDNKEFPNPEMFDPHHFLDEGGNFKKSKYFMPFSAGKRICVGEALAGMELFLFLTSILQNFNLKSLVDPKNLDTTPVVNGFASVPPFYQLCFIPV", "experiment": "Cytochrome P450 2C9 inhibition", "assay_type": "in vitro ADME", "conditions": "human liver microsomes, Diclofenac hydroxylation", "description": "Assay for Determination of Cytochrome P450 2C9 Inhibition"}, "cytochrome P450 2C19": {"target": "T3, cytochrome P450 2C19 (Homo sapiens, UniProt P33261)", "T3 construct": "is assayed at 37° C. with human liver microsomes; from tissue; host or cells: human liver microsomes", "T3 sequence (P33261 whole entry)": "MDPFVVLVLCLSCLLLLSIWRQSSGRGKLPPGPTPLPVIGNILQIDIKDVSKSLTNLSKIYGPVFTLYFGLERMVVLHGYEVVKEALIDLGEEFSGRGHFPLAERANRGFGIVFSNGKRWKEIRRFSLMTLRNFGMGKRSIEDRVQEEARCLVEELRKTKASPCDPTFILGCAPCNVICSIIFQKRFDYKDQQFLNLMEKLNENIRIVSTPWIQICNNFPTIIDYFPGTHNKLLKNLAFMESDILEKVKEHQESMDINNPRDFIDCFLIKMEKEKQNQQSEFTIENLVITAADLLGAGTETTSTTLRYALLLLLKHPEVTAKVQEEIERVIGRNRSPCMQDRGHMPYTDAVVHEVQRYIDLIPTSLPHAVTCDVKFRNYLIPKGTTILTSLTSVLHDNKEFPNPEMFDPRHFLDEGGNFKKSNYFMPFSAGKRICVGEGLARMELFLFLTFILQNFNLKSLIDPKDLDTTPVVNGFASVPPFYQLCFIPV", "experiment": "Cytochrome P450 2C19 inhibition", "assay_type": "in vitro ADME", "conditions": "human liver microsomes, (S)-Mephenytoin hydroxylation", "description": "Assay for Determination of Cytochrome P450 2C19 Inhibition"}, "[2]": {"target": "hERG (human ether-a-go-go-related gene) potassium channel (Homo sapiens, UniProt Q12809)", "sequence (Q12809 whole entry)": "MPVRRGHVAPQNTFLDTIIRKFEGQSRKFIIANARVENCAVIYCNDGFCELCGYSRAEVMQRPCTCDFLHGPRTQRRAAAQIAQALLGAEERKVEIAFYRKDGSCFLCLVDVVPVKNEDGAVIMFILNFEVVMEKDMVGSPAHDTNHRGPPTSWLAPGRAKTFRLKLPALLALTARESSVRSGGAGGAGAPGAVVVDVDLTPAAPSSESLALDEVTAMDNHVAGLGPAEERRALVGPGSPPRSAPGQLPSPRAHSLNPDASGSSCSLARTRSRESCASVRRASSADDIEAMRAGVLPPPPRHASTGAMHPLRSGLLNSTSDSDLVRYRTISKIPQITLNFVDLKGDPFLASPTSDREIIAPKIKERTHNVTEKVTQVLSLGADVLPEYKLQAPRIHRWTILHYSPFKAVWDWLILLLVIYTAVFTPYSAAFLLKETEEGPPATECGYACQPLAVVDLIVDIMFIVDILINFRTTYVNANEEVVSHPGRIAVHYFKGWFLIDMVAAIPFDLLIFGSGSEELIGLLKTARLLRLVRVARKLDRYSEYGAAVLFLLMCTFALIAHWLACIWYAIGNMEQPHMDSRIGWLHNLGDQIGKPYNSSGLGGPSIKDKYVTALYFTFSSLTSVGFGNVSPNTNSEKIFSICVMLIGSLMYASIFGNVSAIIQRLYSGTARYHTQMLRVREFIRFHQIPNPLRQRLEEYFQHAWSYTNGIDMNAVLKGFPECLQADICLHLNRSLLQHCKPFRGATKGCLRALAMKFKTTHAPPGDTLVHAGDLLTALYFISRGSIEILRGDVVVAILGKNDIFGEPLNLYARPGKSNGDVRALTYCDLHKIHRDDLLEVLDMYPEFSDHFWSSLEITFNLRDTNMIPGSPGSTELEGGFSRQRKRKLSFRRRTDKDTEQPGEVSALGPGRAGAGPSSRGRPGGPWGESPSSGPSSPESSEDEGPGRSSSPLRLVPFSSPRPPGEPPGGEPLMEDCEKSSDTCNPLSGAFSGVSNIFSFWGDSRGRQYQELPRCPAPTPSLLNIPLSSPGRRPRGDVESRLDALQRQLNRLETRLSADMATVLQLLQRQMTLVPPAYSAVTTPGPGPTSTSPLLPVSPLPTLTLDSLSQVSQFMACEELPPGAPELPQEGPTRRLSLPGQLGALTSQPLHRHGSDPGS", "experiment": "hERG inhibition", "assay_type": "cell-based"}, "hERG potassium channel": {"target": "hERG potassium channel (Homo sapiens, UniProt Q12809)", "sequence (Q12809 whole entry)": "as above", "experiment": "hERG inhibition", "assay_type": "cell-based", "conditions": "human; at 10 μM"}}, "data": [{"smiles": "CN1C(=O)N(c2cccc(C(F)(F)F)c2)C2=C(C(=O)CCC2)[C@H]1c1ccc(C#N)cc1[S+](C)[O-]", "note": "(single isomer, unassigned) [Example 2.2A, 3-Methanesulfinyl-4-[3-methyl-2,5-dioxo-1-(3-trifluoromethyl-phenyl)-1,2,3,4,5,6,7,8-octahydro-quinazolin-4-yl]-benzonitrile]", "values": [{"measurement": "EC50", "setting": "[1]", "value": 0.001, "unit": "µM"}, {"measurement": "predicted hepatic in vivo blood clearance", "setting": "human hepatocytes", "value": "5 % human hepatic blood flow"}, {"measurement": "solubility at 24 h", "setting": "Aqueous solubility", "value": 55, "unit": "µg/mL"}, {"measurement": "IC50", "setting": "cytochrome P450 2C9", "value": "> 50", "unit": "µM"}, {"measurement": "IC50", "setting": "cytochrome P450 2C19", "value": "> 50", "unit": "µM"}, {"measurement": "IC50", "setting": "[2]", "value": "> 30", "unit": "µM"}, {"measurement": "inhibition at 10 µM", "setting": "hERG potassium channel", "value": 9, "unit": "%"}]}]}
